Where two headings read alike, the source gives them in different places.
B1: H399W: human Kv1.3 channel mutated to express tryptophan at position 399 instead of histidine (SEQ ID NO: 2), expressed from pIRES2-EGFP (protein)
chain: MTVVPGDHLLEPEVADGGGAPPQGGCGGGGCDRYEPLPPSLPAAGEQDCCGERVVINISGLRFETQLKTLCQFPETLLGDPKRRMRYFDPLRNEYFFDRNRPSFDAILYYYQSGGRIRRPVNVPIDIFSEEIRFYQLGEEAMEKFREDEGFLREEERPLPRRDFQRQVWLLFEYPESSGPARGIAIVSVLVILISIVIFCLETLPEFRDEKDYPASTSQDSFEAAGNSTSGSRAGASSFSDPFFVVETLCIIWFSFELLVRFFACPSKATFSRNIMNLIDIVAIIPYFITLGTELAERQGNGQQAMSLAILRVIRLVRVFRIFKLSRHSKGLQILGQTLKASMRELGLLIFFLFIGVILFSSAVYFAEADDPTSGFSSIPDAFWWAVVTMTTVGNSYGDMWPVTIGGKIVGSLCAIAGVLTIALPVPVIVSNFNYFYHRETEGEEQSQYMHVGSCQHLSSSAEELRKARSNSTLSKSEYMVIEEGGMNHSAFPQTPFKTGNSTATCTTNN
modifications: A recombinant polypeptide having the H399W mutation

Tests used:
[1] = system: NIH/3T3 fibroblasts cell line; assay: Whole-cell patch clamp of transfected NIH/3T3 cells; format: cell-based, Mouse; conditions: stably transfected NIH/3T3 cells; for inactivation character of potassium current: FIG. 7 and FIG. 8; for potassium current amplitude: whole-cell voltage clamp, room temperature
Protocol: Mouse fibroblasts cell line (NIH/3T3, ATCC ACCESSION NO. CRL-6361):
(§1) Voltage clamp assay was used to test the expression and function of the over-expressed channels.
Selection was done using Neomycin sulfate (G418) antibiotic (Gibco Catalog No. 11811-031) which was added to the growth medium ([…]). Clones were isolated using cloning ring and cultured into 24 well plate (corning Catalog No. 3524). For expansion, confluent wells were transferred to six well plates and then to 100 mm culture dish (Corning Catalog No. 430167DMEM-complete+G418 10% FCS was thereafter replaced every 72 to 96 hours.
Total cell protein was extracted from the various clones using 300 μl cold RIPA buffer (with supplements; RIPA lysis buffer, 1× Santa Cruz Biotechnology, Catalog No. 24948) and screened by western blot analysis with rabbit anti-Kv1.3 antibody (CHEMICON, Catalog No. AB5178). Colonies that tested western blot positive were then analyzed by voltage clamp.
(§2) Patch clamp recordings—Voltage-clamp recordings were performed using the whole-cell patch clamp technique. All measurements were done at room temperature. Patch pipettes (2-4 MΩ) were prepared from glass capillary tubes (Jencons Catalog No. 687-055) using a double-stage puller (Narishige pp-830). Currents were recorded with an Axon Instruments amplifier (Axopatch 200), digitized by DigiData 1322A digitizer (Axon instruments). Data was analyzed using pCLAMP software (version 8.0). Bath solution for the whole-cell recordings contained (in mM): 140 NaCl, 3 KCl, 2 CaCl2, 2 MgCl2, 10 Glucose and 10 HEPES (pH 7.4). Pipette solution for the whole-cell recordings (in mM): 140 KCl, 10 Na2 ATP, 1 CaCl2, 1 MgCl2, 10 EGTA and 5 HEPES (pH 7.4). Currents were elicited by 200 ms pulses from holding potential of −80 mV to −90 mv and then to 110 mV in increments of 20 mV.

[2] = wild type, from Marom et al. 1995; cited from earlier work
Human dermal fibroblasts = assay: Whole-cell patch clamp of transfected human dermal fibroblasts; format: cell-based; conditions: for potassium current amplitude: 7-20 days after nucleoporation, 12 cells per construct; for character of potassium current: FIG. 9 and FIG. 10
Excerpt: as §1
The protocol is using Collagenase type 1 (Worthington Biochemical Corp., Lakewood, N.J., cat. LS004196, lot.X4J7447) for extractions of cells from a tissue. Primary cultures were generated by seeding in flasks with growth Medium: DMEM+HEPES (ADCF) with phenol red (HyClone part no SH3A1534.01, Lot no ANM20173 custom made for biogenics, L.T.D). Medium was supplemented with 10% FBS defined (HyClone; Cat no: SH30072.03; Lot no: APD21173); ITS+1 liquid media supplement (sigma # I-2521); Gentamycin 50 μg ml (Beit ha'emek; cat no#03-035-1) and Amphotericin B 2.5 μg ml (Beit ha'emek; Catalog No. 03-029-1).
Five days prior to transfection, cells were seeded in 150 cm^2 flasks. Medium was changed every 3 days. Cells reached 90% confluence in the day of the transfection.
For expression of the wt and mutation constructs in human dermal fibroblasts, Amaxa Nucleofector (Amaxa biosystem) and Human Dermal Fibroblast (NHDF) Nucleofector kit (Catalog No. VPD-1001) were used. Nucleofection was done according to the protocol of the manufacturer. Cells from passage 1-5 were used. The expression was characterized using fluorescent microscopy and the patch clamp technique. Seven days after nucleofection patch clamp analysis were performed.
as §2

[3] = Transition rate of the channel from open to inactivation; conditions: H399W mutant

Row | Molecule | inactivation character of potassium current [1] | potassium current amplitude [1] | transition rate from open to inactivation [2] | potassium current amplitude (Human dermal fibroblasts) | character of potassium current (Human dermal fibroblasts) | transition rate from open to inactivation [3]
1 | wild type Kv1.3: wild type human Kv1.3 voltage-gated potassium channel (SEQ ID NO: 4, GenBank AAC31761, KCNA3) | slowly inactivated | 200-1500 pA | 0.0074 | 600-2500 pA | typical potassium | –
2 | B1 | fast inactivated | 150-1800 pA | – | 400-1200 pA | fast inactivated | 0.025

From patent US8101736B2, “Polynucleotides and polypeptide of human KV1.3, compositions comprising same and methods of using same” (GeneGrafts Ltd., priority 2005, dated 2012)
